# Results published in patent US7329681B2, “Inhibitors of IMPDH enzyme” (Vertex Pharmaceuticals Incorporated, priority 1996, dated 2008).
# Target: IMPDH human type II (Homo sapiens, UniProt P12268)
# Assay: IMPDH activity inhibition assay (spectrophotometric, NADH formation at 340 nm)
# Type: biochemical
# Conditions: not given
# Protocol: We have measured the inhibition constants of each compound against IMPDH using an adaptation of the method first reported by […]. Moyed, and […]. Biol. Chem., 226, p. 339 (1957)]. We measured the inhibition constants of the compounds listed in Table III utilizing the following protocol: IMP dehydrogenase activity was assayed following an adaptation of the method first reported by […]. Moyed, H. S. and […]. Biol. Chem. 226, 339]. Enzyme activity was measured spectrophotometrically, by monitoring the increase in absorbance at 340 nm due to the formation of NADH (ε340 is 6220 M^-1 cm^-1). The reaction mixture contained 0.1 M Tris pH 8.0, 0.1 M KCl, 3 mM EDTA, 2 mM DTT, […] and enzyme (IMPDH human type II) at a concentration of 15 to 50 nM. This solution is incubated at 37° C. for 10 minutes. The reaction is started by adding NAD to a final concentration of 0.1 M and the initial rate is measured by following the linear increase in absorbance at 340 nm for 10 minutes. For reading in a standard spectrophotometer (path length 1 cm) the final volume in the cuvette is 1.0 ml. The assay has also been adapted to a 96 well microtiter plate format; in this case the concentrations of all the reagents remain the same and the final volume is decreased to 200 μl. For the analysis of inhibitors, the compound in question is dissolved in DMSO to a final concentration of 20 mM and added to the initial assay mixture for preincubation with the enzyme at a final volume of 2-5% (v/v). The reaction is started by the addition of NAD, and the initial rates measured as above. […] The designation “ND” is used where a given compound was not tested.
row,Compound,Ki [nM]
1,COc1cc(NC(=O)Nc2cccc(CNC(=O)Oc3cccnc3)c2)ccc1-c1cnco1 [Compound 137],51 to 1000
2,COc1cc(NC(=O)Nc2cccc(CNC(=O)OCCO)c2)ccc1-c1cnco1 [Compound 134],0.01 to 50
3,COc1cc(NC(=O)Nc2cccc(CNC(=O)Oc3ccc(NC(C)=O)cc3)c2)ccc1-c1cnco1 [Compound 127],0.01 to 50

# Same assay, conditions: IMPDH human type II, 15 to 50 nM enzyme, 37° C., tight-binding fit (Henderson); read-out: Ki
row,Compound,Ki [nM]
1,O=C(Nc1ccncc1)Nc1ccc(-c2cnco2)cc1 [Compound 30],1000 to 10000
2,Cc1cc(NC(=O)Nc2ccccc2)ccc1-c1cnco1 [Compound 74],51 to 1000
3,CC(=O)N(C)c1cccc(NC(=O)Nc2ccc(C#N)c(Cl)c2)c1 [Compound 163],51 to 1000
4,COc1cc(NC(=O)Nc2cccc(NC(=O)CC3CCCC3)c2)ccc1-c1cnco1 [Compound 114],51 to 1000
5,COc1cc(NC(=O)Nc2cccc(CNC(=O)OC3CCCC3)c2)ccc1-c1cnco1 [Compound 133],0.01 to 50
6,Cc1c(Cl)cccc1NC(=O)Nc1ccc(-c2cnco2)cc1 [Compound 10],1000 to 10000
7,O=C(Nc1ccc(-c2cnco2)cc1)Nc1ccsc1 [Compound 3],51 to 1000
8,COCCCOC(=O)NCc1cccc(NC(=O)Nc2ccc(-c3cnco3)c(OC)c2)c1 [Compound 162],0.01 to 50
9,COc1cc(NC(=O)Nc2cccc(CNC(=O)OCCCSC)c2)ccc1-c1cnco1 [Compound 145],0.01 to 50
10,COc1cc(NC(=O)Nc2cccc(NC(=O)c3ccccc3)c2)ccc1-c1cnco1 [Compound 110],51 to 1000
11,COc1cc(NC(=O)Nc2cccc(CNC(=O)OCCCCCO)c2)ccc1-c1cnco1 [Compound 141],0.01 to 50
12,COc1ccccc1NC(=O)Nc1ccc(-c2cnco2)cc1 [Compound 12],1000 to 10000
13,COC(=O)c1cc(NC(=O)Nc2cccc(C)c2)ccc1-c1cnco1 [Compound 88],1000 to 10000
14,COc1cc(NC(=O)Nc2cccc(CNC(=O)OCC3CCCCC3)c2)ccc1-c1cnco1 [Compound 135],0.01 to 50
15,O=C(Nc1ccc(-c2cnco2)cc1)Nc1ccc(F)c(F)c1 [Compound 4],> 10000
16,N#Cc1cccc(NC(=O)Nc2ccc(-c3cnco3)cc2)c1 [Compound 8],1000 to 10000
17,COc1cc(NC(=O)Nc2cccc(CNC(=O)OCc3ccccc3)c2)ccc1-c1cnco1 [Compound 138],0.01 to 50
18,COc1ccc(Cl)cc1NC(=O)Nc1ccc(OC)c(OC)c1 [Compound 35],1000 to 10000
19,CC(=O)OCc1cc(NC(=O)Nc2cccc(C)c2)ccc1-c1cnco1 [Compound 101],1000 to 10000
20,COc1cc(NC(=O)Nc2cccc(C)c2)ccc1-c1cnco1 [Compound 55],0.01 to 50
21,O=C(Nc1ccc(-c2cnco2)c(Cl)c1)Nc1ccc(-c2cnco2)c(Cl)c1 [Compound 61],> 10000
22,COc1cc(NC(=O)Nc2cccc(CNC(=O)OCCCNC(=O)OC(C)(C)C)c2)ccc1-c1cnco1 [Compound 139],51 to 1000
23,COc1cc(NC(=S)Nc2cccc(C)c2)ccc1-c1cnco1 [Compound 115],51 to 1000
24,O=C(Nc1ccc(Oc2ccccc2)cc1)Nc1ccc(-c2cnco2)cc1 [Compound 21],1000 to 10000
25,COc1cc(NC(=O)Nc2cccc(CNC(=O)OCc3ccccn3)c2)ccc1-c1cnco1 [Compound 121],0.01 to 50
26,O=C(O)Cc1cccc(NC(=O)Nc2ccc(-c3cnco3)cc2)c1 [Compound 54],1000 to 10000

row,Compound,Ki [nM]
1,O=C(Nc1ccc(-c2cnco2)c(Cl)c1)Nc1cccs1 [Compound 68],51 to 1000
2,O=C(Nc1ccc(-c2cnco2)cc1)Nc1ccc(Cl)c(C(F)(F)F)c1 [Compound 9],1000 to 10000
3,O=C(Nc1ccc(-c2cnco2)cc1)Nc1cccc(CO)c1 [Compound 25],1000 to 10000
4,COc1cc(NC(=O)Nc2cccc(N(C)C(C)=O)c2)ccc1C#N [Compound 164],51 to 1000
5,COc1cc(NC(=O)Nc2cccc(CNC(=O)OCC3CCCN(C(=O)OC(C)(C)C)C3)c2)ccc1-c1cnco1 (stereo not shown) [Compound 149],0.01 to 50
6,COc1cc(NC(=O)Nc2cccc(NC(=O)Cc3ccccc3)c2)ccc1-c1cnco1 [Compound 111],0.01 to 50
7,COc1cc(NC(=O)Nc2ccc3c(c2)N(C(C)=O)CC3)ccc1-c1cnco1 [Compound 106],51 to 1000
8,O=C(Nc1ccccc1)Nc1ccc(-c2cnco2)c(Cl)c1 [Compound 42],51 to 1000
9,CC(=O)Nc1cccc(NC(=O)Nc2ccc(-c3cnco3)c(Cl)c2)c1 [Compound 72],1000 to 10000
10,Cc1cccc(NC(=O)Nc2ccc(-c3cnco3)cc2)c1 [Compound 17],51 to 1000
11,CCc1cccc(NC(=O)Nc2ccc(OC)c(OC)c2)c1 [Compound 37],1000 to 10000
12,COc1cc(NC(=O)Nc2cccc(NC(=O)C(F)(F)F)c2)ccc1-c1cnco1 [Compound 96],51 to 1000
13,CC(C)(C)OC(=O)NCc1cccc(NC(=O)Nc2cccc(CNC(=O)OC(C)(C)C)c2)c1 [Compound 103],1000 to 10000
14,O=C(Nc1ccc(-c2cnco2)cc1)Nc1cccnc1 [Compound 29],> 10000
15,Cc1cc(NC(=O)Nc2ccc(-c3cnco3)cc2)ccc1[N+](=O)[O-] [Compound 40],1000 to 10000
16,CN(C(=O)C(F)(F)F)c1cccc(NC(=O)Nc2ccc(-c3cnco3)c(Cl)c2)c1 [Compound 93],0.01 to 50
17,COc1cc(NC(=O)Nc2cccc(NC(=O)C(F)F)c2)ccc1-c1cnco1 [Compound 100],51 to 1000
18,COc1ccc(NC(=O)Nc2cccc(Br)c2)cc1OC [Compound 34],1000 to 10000
19,COc1cc(NC(=O)Nc2cccc(CNC(=O)OC3COCOC3)c2)ccc1-c1cnco1 [Compound 126],0.01 to 50
20,O=C(Nc1ccc(-c2cnco2)cc1)Nc1ccc(F)c([N+](=O)[O-])c1 [Compound 104],1000 to 10000
21,CN(C)c1cccc(NC(=O)Nc2ccc(-c3cnco3)cc2)c1 [Compound 49],1000 to 10000
22,COC(=O)Cc1cccc(NC(=O)Nc2ccc(-c3cnco3)cc2)c1 [Compound 47],51 to 1000
23,COc1ccc(NC(=O)Nc2cccc([N+](=O)[O-])c2)cc1Cl [Compound 52],1000 to 10000
24,O=C(Nc1ccc(-c2cnco2)cc1)Nc1ccc(F)c(Cl)c1 [Compound 23],1000 to 10000
25,COc1cc(NC(=O)Nc2cccc(NC(=O)OCc3cccnc3)c2)ccc1-c1cnco1 [Compound 98],51 to 1000
26,COc1cc(NC(=O)Nc2cccc(CNC(=O)OC[C@@H]3CNC(=O)O3)c2)ccc1-c1cnco1 [Compound 122],0.01 to 50

row,Compound,Ki [nM]
1,COc1cc(NC(=O)Nc2cccc(NC(=O)Oc3ccccc3)c2)ccc1-c1cnco1 [Compound 99],0.01 to 50
2,COc1cc(NC(=O)Nc2cccc(CNC(=O)OC3CCOCC3)c2)ccc1-c1cnco1 [Compound 131],0.01 to 50
3,O=C(Nc1ccc(-c2cnco2)cc1)Nc1cccc(O)c1 [Compound 27],1000 to 10000
4,COc1cc(NC(=O)Nc2cccc(CN)c2)ccc1-c1cnco1 [Compound 105],51 to 1000
5,Cc1cccc(NC(=O)Nc2ccc(-c3cnco3)c(CO)c2)c1 [Compound 102],1000 to 10000
6,O=C(Nc1cccc(I)c1)Nc1ccc(-c2cnco2)c(Cl)c1 [Compound 73],51 to 1000
7,CNc1cccc(NC(=O)Nc2ccc(-c3cnco3)c(Cl)c2)c1 [Compound 94],51 to 1000
8,O=C(Nc1ccc(-c2cnco2)cc1)Nc1cccc(Cl)c1 [Compound 22],1000 to 10000
9,Cc1cccc(NC(=O)Nc2ccc(-c3cnco3)c(Br)c2)c1 [Compound 60],51 to 1000
10,COc1ccc(NC(=O)Nc2cccc(SC)c2)cc1OC [Compound 38],> 10000
11,COc1cc(NC(=O)Nc2cccc(CNC(=O)OC(C)(C)C)c2)ccc1-c1cnco1 [Compound 113],0.01 to 50
12,O=C(Nc1cccc([N+](=O)[O-])c1)Nc1ccc(-c2cnco2)c(Br)c1 [Compound 64],51 to 1000
13,Cc1cc(N)cc(NC(=O)Nc2ccc(-c3cnco3)cc2)c1 [Compound 58],1000 to 10000
14,Cc1cccc(NC(=O)Nc2ccc(-c3cnco3)c(Cl)c2)c1 [Compound 43],51 to 1000
15,COc1cc(NC(=O)Nc2cccc(N)c2)ccc1-c1cnco1 [Compound 59],0.01 to 50
16,COc1ccc(NC(=O)Nc2cccc(F)c2)cc1OC [Compound 36],1000 to 10000
17,COc1cccc(NC(=O)Nc2ccc(-c3cnco3)cc2)c1 [Compound 13],1000 to 10000
18,COc1cc(NC(=O)Nc2cccc(CNC(=O)OC3CCCN(C(=O)OC(C)(C)C)C3)c2)ccc1-c1cnco1 (stereo not shown) [Compound 143],51 to 1000
19,COc1cc(NC(=O)Nc2cccc(CNC(=O)OCC(C)C)c2)ccc1-c1cnco1 [Compound 124],0.01 to 50
20,COc1cc(NC(=O)Nc2cccc(CNC(=O)OC(CO)CO)c2)ccc1-c1cnco1 [Compound 151],51 to 1000
21,O=C(Nc1ccc(-c2cnco2)cc1)Nc1ccc2c(c1)OCCO2 [Compound 39],> 10000
22,CNS(=O)(=O)c1cccc(NC(=O)Nc2ccc(-c3cnco3)cc2)c1 [Compound 81],1000 to 10000
23,O=C(Nc1ccc(-c2cnco2)cc1)Nc1cccc(S(=O)(=O)Nc2ccccc2)c1 [Compound 82],1000 to 10000
24,C#Cc1cccc(NC(=O)Nc2ccc(-c3cnco3)cc2)c1 [Compound 26],1000 to 10000
